From US20100286183A1, “SPIROHYDANTOIN COMPOUNDS AND METHODS FOR THE MODULATION OF CHEMOKINE RECEPTOR ACTIVITY” (priority 2005, published 2010) come the findings set out here.

Broadly, the IC50 is the concentration at which inhibition is half-maximal.

This assay has as its system HIV-1Ba-L. As to the kind of experiment: HIV-1 Replication in PM1 Cell Culture Assay. The conditions noted are these: read-out: IC50 μM HIV-1 PM1. It is filed as cell-based. From the text: C:HIV-1 Replication in PM1 Cell Culture Assay
Evaluation of the in vitro anti-HIV-1Ba-L activity in PM1 cell line: PM1 cell line which is a continuous CD4+ T-cell clone originally derived from a neoplastic T-cell line is used. PM1 is characterized by a unique susceptibility to a wide range of HIV-1 isolates, including primary and biologically pure macrophage-tropic isolates. Drugs are serially diluted (9 concentrations in duplicates) and added to wells of a flat bottom 96-well plate. PM1 cells are infected with HIV-1Ba-L at a multiplicity of infection of 0.5 for a period of 3 hours. Unbound viruses are removed by washing the cells two times through centrifugation followed by seeding the cells into a 96-well plate in the presence of the serially diluted test compounds with final concentrations ranging from 0.00256 to 5000 ηM. Thereafter, plates were incubated for a period of 6 days at 37° C. in a CO2 incubator. Thereafter, culture supernatants are collected at day 6 and stored at −80° C. for viral quantification. The amount of virus present in cell culture supernatants is quantified using a reverse transcriptase assay. The concentration causing 50% inhibition of viral replication (IC50) is calculated using Graph Pad Prism software.

The mark [1] stands for this setting: Human immunodeficiency virus 1, 144 h, PM1 cell line infected with HIV-1Ba-L, 6 days, reverse transcriptase assay of supernatant.
Setting [2] is: Human immunodeficiency virus 1, PM1, 144 h.

The structures appear in SMILES notation. Structures can show the parent of a compound that is named as a salt. Where two headings read alike, the source gives them in different places.

`CC(C)(C)OC(=O)N1C[C@H](CN2CCC3(CC2)NC(=O)N(Cc2ccc(Br)cc2)C3=O)[C@@H](c2ccccc2)C1` [Compound 1, (3S,4S)-3-[3-(4-Bromo-benzyl)-2,4-dioxo-1,3,8-triaza-spiro[4.5]dec-8-ylmethyl]-4-phenyl-pyrrolidine-1-carboxylic acid tert-butyl ester]: the IC50 under setting [1] was less than 1 µM.
Take `COc1ccc(CN2C(=O)NC3(CCN(C[C@H]4CN(C(=O)OC(C)(C)C)C[C@@H]4c4ccccc4)CC3)C2=O)cc1` [Compound 2, (3S,4S)-3-[3-(4-Methoxy-benzyl)-2,4-dioxo-1,3,8-triaza-spiro[4.5]dec-8-ylmethyl]-4-phenyl-pyrrolidine-1-carboxylic acid tert-butyl ester]: the IC50 under setting [1] is less than 1 µM.
The same measure, in the same setting: to `CC(C)(C)OC(=O)N1C[C@H](CN2CCC3(CC2)NC(=O)N(Cc2ccc(S(C)(=O)=O)cc2)C3=O)[C@@H](c2ccccc2)C1` [Compound 3, (3S,4S)-3-[3-(4-Methanesulfonyl-benzyl)-2,4-dioxo-1,3,8-triaza-spiro[4.5]dec-8-ylmethyl]-4-phenyl-pyrrolidine-1-carboxylic acid tert-butyl ester] belongs less than 1 µM.
On to `CCC(=O)N1C[C@H](CN2CCC3(CC2)NC(=O)N(Cc2ccc(S(C)(=O)=O)cc2)C3=O)[C@@H](c2ccccc2)C1` [Compound 15, 3-(4-Methanesulfonyl-benzyl)-8-((3S,4S)-4-phenyl-1-propionyl-pyrrolidin-3-ylmethyl)-1,3,8-triaza-spiro[4.5]decane-2,4-dione hydrochloride], for which the IC50 under setting [2] was less than 1 µM.
Still for that read-out and setting: for `CC1(C(=O)N2C[C@H](CN3CCC4(CC3)NC(=O)N(Cc3ccc(S(C)(=O)=O)cc3)C4=O)[C@@H](c3ccccc3)C2)CC1` [Compound 16, 3-(4-Methanesulfonyl-benzyl)-8-[(3S,4S)-1-(1-methyl-cyclopropanecarbonyl)-4-phenyl-pyrrolidin-3-ylmethyl]-1,3,8-triaza-spiro[4.5]decane-2,4-dione hydrochloride] the value was less than 1 µM; for `CS(=O)(=O)c1ccc(CN2C(=O)NC3(CCN(C[C@H]4CN(C(=O)CC5CC5)C[C@@H]4c4ccccc4)CC3)C2=O)cc1` [Compound 17, 8-[(3S,4S)-1-(2-Cyclopropyl-acetyl)-4-phenyl-pyrrolidin-3-ylmethyl]-3-(4-methanesulfonyl-benzyl)-1,3,8-triaza-spiro[4.5]decane-2,4-dione hydrochloride], less than 1 µM; for `CS(=O)(=O)c1ccc(CN2C(=O)NC3(CCN(C[C@H]4CN(C(=O)C5CCCC5)C[C@@H]4c4ccccc4)CC3)C2=O)cc1` [Compound 18, 8-((3S,4S)-1-Cyclopentanecarbonyl-4-phenyl-pyrrolidin-3-ylmethyl)-3-(4-methanesulfonyl-benzyl)-1,3,8-triaza-spiro[4.5]decane-2,4-dione hydrochloride], less than 1 µM.
Consider `CS(=O)(=O)c1ccc(CN2C(=O)NC3(CCN(C[C@H]4CN(C(=O)C5CCC(F)(F)CC5)C[C@@H]4c4ccccc4)CC3)C2=O)cc1` [Compound 19, 8-[(3S,4S)-1-(4,4-Difluoro-cyclohexanecarbonyl)-4-phenyl-pyrrolidin-3-ylmethyl]-3-(4-methanesulfonyl-benzyl)-1,3,8-triaza-spiro[4.5]decane-2,4-dione hydrochloride], for which the IC50 under setting [2] was less than 1 µM.
In the case of `CS(=O)(=O)c1ccc(CN2C(=O)NC3(CCN(C[C@H]4CN(C(=O)c5ccccc5F)C[C@@H]4c4ccccc4)CC3)C2=O)cc1` [Compound 20, 8-[(3S,4S)-1-(2-Fluoro-benzoyl)-4-phenyl-pyrrolidin-3-ylmethyl]-3-(4-methanesulfonyl-benzyl)-1,3,8-triaza-spiro[4.5]decane-2,4-dione hydrochloride], under setting [2], the 50% inhibitory concentration (IC50) is less than 1 µM.
Consider `CS(=O)(=O)c1ccc(CN2C(=O)NC3(CCN(C[C@H]4CN(C(=O)c5ccccc5Cl)C[C@@H]4c4ccccc4)CC3)C2=O)cc1` [Compound 21, 8-[(3S,4S)-1-(2-Chloro-benzoyl)-4-phenyl-pyrrolidin-3-ylmethyl]-3-(4-methanesulfonyl-benzyl)-1,3,8-triaza-spiro[4.5]decane-2,4-dione hydrochloride], for which the IC50 under setting [2] is less than 1 µM.
As to `CN(C)S(=O)(=O)c1ccc(CN2C(=O)NC3(CCN(C[C@H]4CN(C(=O)C5CCC(F)(F)CC5)C[C@@H]4c4ccccc4)CC3)C2=O)cc1` [Compound 22, 4-{8-[(3S,4S)-1-(4,4-Difluoro-cyclohexanecarbonyl)-4-phenyl-pyrrolidin-3-ylmethyl]-2,4-dioxo-1,3,8-triaza-spiro[4.5]dec-3-ylmethyl}-N,N-dimethyl-benzenesulfonamide hydrochloride], the IC50 under setting [2] is less than 1 µM.
For the compound `CC(C)(C)CC(=O)N1C[C@H](CN2CCC3(CC2)NC(=O)N(Cc2ccc(S(C)(=O)=O)cc2)C3=O)[C@@H](c2ccccc2)C1` [Compound 23, 8-[(3S,4S)-1-(3,3-Dimethyl-butyryl)-4-phenyl-pyrrolidin-3-ylmethyl]-3-(4-methanesulfonyl-benzyl)-1,3,8-triaza-spiro[4.5]decane-2,4-dione hydrochloride], the half-inhibitory concentration (IC50) under setting [2] is less than 1 µM.
As for `CCCN1C(=O)N(CC)C2(CCN(C[C@H]3CN(C(=O)CC(C)(C)C)C[C@@H]3c3ccccc3)CC2)C1=O` [Compound 24, 8-[(3S,4S)-1-(3,3-Dimethyl-butyryl)-4-phenyl-pyrrolidin-3-ylmethyl]-1-ethyl-3-propyl-1,3,8-triaza-spiro[4.5]decane-2,4-dione hydrochloride], under setting [2], the IC50 was less than 1 µM.
